According to patent publication US20050164994A1, “Treatment of genitourinary tract disorders” (Control Deliver Systems, Inc., priority 2001, published 2005):
Several values for one entry are separate records, joined by “and”; a condition that tells them apart may be missing. Equal entries are not always repeated.

Assay: Canine study: codrug remaining in 5 mg pellets implanted in the prostate
Format: in vivo
Conditions: dog prostate, 5 mg implant
Procedure: A canine study was performed using a codrug of 5-FU and fluocinolone acetonide (Fa) to evaluate the release rate of the codrug in prostate tissue. The results of that study are detailed in FIGS. 1-3. Two 5 mg pellets of the codrug were implanted in the prostate, and the animals were humanely sacrificed on postoperative days, as indicated. The prostates were removed and levels of the codrug in the pellets determined.

## CC1(C)O[C@@H]2CC3C4C[C@H](F)C5=CC(=O)C=C[C@]5(C)[C@@]4(F)[C@@H](O)C[C@]3(C)[C@]2(C(=O)COC(=O)CC(=O)n2c(=O)[nH]cc(F)c2=O)O1 (some centres unmarked) [5-FU + FA]
Sacrificed at 28 days
  Codrug Remaining (single pellet): 4.27 mg and 4.24 mg and 4.04 mg and 3.50 mg and 4.14 mg and 4.18 mg and 4.12 mg and 4.23 mg
Sacrificed at 42 days
  Codrug Remaining (single pellet): 3.50 mg and 3.33 mg and 3.89 mg and 4.12 mg
